# Measured values: patent US20160115539A1, “USE OF A SLC MAMMALIAN SKIN TRANSPORTER” (GALDERMA RESEARCH & DEVELOPMENT, priority 2013, published 2016)
# Key:
# Assay type in all cases: cell-based
# [1] = system: SLC47A1 (MATE1); assay: Effect of Rifampicin on SLC47A1 mRNA expression in human hepatocytes in primary culture (real time PCR); details: Rifampicin 20 μM, 72 hours
# Description: (§1) After homogenization of skin samples or hepatocytes in lysis buffer (Promega), total RNA was isolated using SV Total RNA Isolation System (Promega), in accordance with the instructions provided by the constructor. RNA concentrations were quantified spectrophotometrically. Quantification of mRNA expression of human SLC transporters was performed using TaqMan PCR techniques (Applied Biosystems). Experiments were carried out on a 7500 real time PCR System (Applied Biosystems) using Assay-on-Demand gene expression products. For this, 500 ng of total RNA were reverse-transcribed using the High Capacity RNA to cDNA Master Mix kit (Applied Biosystems).
# [2] = system: SLC47A1 (MATE1); assay: Effect of Rifampicin on SLC47A1 mRNA expression in human skin organoculture (real time PCR); details: Rifampicin 20 μM, 72 hours, p≦0.05
# Description: (§2) Fresh human skin samples from 3 different donors were used and maintained in organoculture. Four skin biopsies of 6 mm diameter were used per well of 6-well plate, filled with long term skin culture medium (Biopredic, France) (FIG. 1). Skin samples were treated with 20 μM Rifampicin during 3 days. In a separate experiment, skin samples were exposed during one hour every day during 3 days to UV lights via a solar simulator (UVA 110 W/m^2; UVB 20 W/m^2). Untreated skin samples were used as control. The culture plates were kept in a cell culture incubator set at 37° C., 5% CO2 and saturated hygrometry. At the end of treatment period gene expression of SLC transporters was measured as described above.
# as §1
# [3] = system: SLC47A2 (MATE2); assay: Effect of Rifampicin on SLC47A2 mRNA expression in human skin organoculture (real time PCR); details: Rifampicin 20 μM, 72 hours
# Description: as §2, §1
smiles,measurement,setting,value
CO[C@H]1/C=C/O[C@@]2(C)Oc3c(C)c(O)c4c(O)c(c(/C=N/N5CCN(C)CC5)c(O)c4c3C2=O)NC(=O)/C(C)=C\C=C\[C@H](C)[C@H](O)[C@@H](C)[C@@H](O)[C@@H](C)[C@H](OC(C)=O)[C@@H]1C [Rifampicin],decrease in expression of SLC47A1 (MATE1),[1],48%
same,decrease in MATE1 expression,[2],44%
same,decrease in MATE2 expression,[3],30%
